Assay [1] addresses wild-type EZH2 (PRC2 enzyme) (Homo sapiens (Human), UniProt Q15910). In words: PRC2 enzyme assay on peptide substrate, wild-type EZH2 (H3K27me0 peptide, 3H-SAM Flashplate). The format is biochemical. As to conditions: wild-type PRC2 4 nM, read-out: WT EZH2 IC50.
Assay [2] addresses EZH2 Y641F mutant (PRC2 enzyme) (Homo sapiens (Human), UniProt Q15910, Y641F). Kind of assay: PRC2 enzyme assay on peptide substrate, EZH2 Y641F mutant (H3K27me2 peptide, 3H-SAM Flashplate). The format is biochemical. The settings on record: Y641F mutant PRC2 4 nM.
Assay [3] deals with H3K27me3 in WSU-DLCL2 cells. Kind of assay: WSU-DLCL2 methylation assay (H3K27me3 ELISA). The format is cell-based, human. As to conditions: H3K27me3 normalised to total H3.
From the text: WSU-DLCL2 Methylation Assay
WSU-DLCL2 suspension cells were purchased from DSMZ (German Collection of Microorganisms and Cell Cultures, Braunschweig, Germany). RPMI/Glutamax Medium, Penicillin-Streptomycin, Heat Inactivated Fetal Bovine Serum, and D-PBS were purchased from Life Technologies, Grand Island, N.Y., USA. Extraction Buffer and Neutralization Buffer (5×) were purchased from Active Motif, Carlsbad, Calif., USA. Rabbit anti-Histone H3 antibody was purchased from Abcam, Cambridge, Mass., USA. Rabbit anti-H3K27me3 and HRP-conjugated anti-rabbit-IgG were purchased from Cell Signaling Technology, Danvers, Mass., USA. TMB “Super Sensitive” substrate was sourced from BioFX Laboratories, Owings Mills, Md., USA. IgG-free Bovine Serum Albumin was purchased from Jackson ImmunoResearch, West Grove, Pa., USA. PBS with Tween (10×PBST) was purchased from KPL, Gaithersburg, Md., USA. Sulfuric Acid was purchased from Ricca Chemical, Arlington, Tex., USA. Immulon ELISA plates were purchased from Thermo, Rochester, N.Y., USA. V-bottom cell culture plates were purchased from Corning Inc., Corning, N.Y., USA. V-bottom polypropylene plates were purchased from Greiner Bio-One, Monroe, N.C., USA.
WSU-DLCL2 suspension cells were maintained in growth medium (RPMI 1640 supplemented with 10% v/v heat inactivated fetal bovine serum and 100 units/mL penicillin-streptomycin) and cultured at 37° C. under 5% CO2. Under assay conditions, cells were incubated in Assay Medium (RPMI 1640 supplemented with 20% v/v heat inactivated fetal bovine serum and 100 units/mL penicillin-streptomycin) at 37° C. under 5% CO2 on a plate shaker.
WSU-DLCL2 cells were seeded in assay medium at a concentration of 50,000 cells per mL to a 96-well V-bottom cell culture plate with 200 μL per well. […] Plates were incubated on a titer-plate shaker at 37° C., 5% CO2 for 96 hours. After four days of incubation, plates were spun at 241×g for five minutes and medium was aspirated gently from each well of cell plate without disturbing cell pellet. Pellet was resuspended in: 200 μL DPBS and plates were spun again at 241×g for five minutes. The supernatant was aspirated and cold (4° C.) Extraction buffer (100 μL) was added per well. Plates were incubated at 4° C. on orbital shaker for two hours. Plates were spun at 3427×g×10 minutes. Supernatant (80 μL per well) was transferred to its respective well in 96 well V-bottom polypropylene plate. Neutralization Buffer 5× (20 μL per well) was added to V-bottom polypropylene plate containing supernatant. V-bottom polypropylene plates containing crude histone preparation (CHP) were incubated on orbital shaker×five minutes. Crude Histone Preparations were added (2 μL per well) to each respective well into duplicate 96 well ELISA plates containing 100 μL Coating Buffer (1×PBS+BSA 0.05% w/v). Plates were sealed and incubated overnight at 4° C. The following day, plates were washed three times with 300 μL per well 1×PBST. […] For H3K27me3 detection, 100 μL of HRP conjugated anti-rabbit IgG antibody diluted to 1:4000 in ELISA diluent was added per well. Plates were incubated at room temperature for 90 minutes. […] TMB substrate 100 μL was added per well. Histone H3 plates were incubated for five minutes at room temperature. H3K27me3 plates were incubated for 10 minutes at room temperature. The reaction was stopped with sulfuric acid 1N (100 μL per well). Absorbance for each plate was read at 450 nm.
Each plate included eight control wells DMSO only treatment (Minimum Inhibition) as well as eight control wells for maximum inhibition (Background wells).
The average of the ratio values for each control type was calculated and used to determine the percent inhibition for each test well in the plate. Test compound was serially diluted three-fold in DMSO for a total of ten test concentrations, beginning at 25 μM.
The mark [4] stands for this setting: Homo sapiens, WSUDLCL2, 96 hours incubation.

pIC50: −log10 of the molar value.

Chain of wild-type EZH2 (PRC2 enzyme) (Q15910 whole entry): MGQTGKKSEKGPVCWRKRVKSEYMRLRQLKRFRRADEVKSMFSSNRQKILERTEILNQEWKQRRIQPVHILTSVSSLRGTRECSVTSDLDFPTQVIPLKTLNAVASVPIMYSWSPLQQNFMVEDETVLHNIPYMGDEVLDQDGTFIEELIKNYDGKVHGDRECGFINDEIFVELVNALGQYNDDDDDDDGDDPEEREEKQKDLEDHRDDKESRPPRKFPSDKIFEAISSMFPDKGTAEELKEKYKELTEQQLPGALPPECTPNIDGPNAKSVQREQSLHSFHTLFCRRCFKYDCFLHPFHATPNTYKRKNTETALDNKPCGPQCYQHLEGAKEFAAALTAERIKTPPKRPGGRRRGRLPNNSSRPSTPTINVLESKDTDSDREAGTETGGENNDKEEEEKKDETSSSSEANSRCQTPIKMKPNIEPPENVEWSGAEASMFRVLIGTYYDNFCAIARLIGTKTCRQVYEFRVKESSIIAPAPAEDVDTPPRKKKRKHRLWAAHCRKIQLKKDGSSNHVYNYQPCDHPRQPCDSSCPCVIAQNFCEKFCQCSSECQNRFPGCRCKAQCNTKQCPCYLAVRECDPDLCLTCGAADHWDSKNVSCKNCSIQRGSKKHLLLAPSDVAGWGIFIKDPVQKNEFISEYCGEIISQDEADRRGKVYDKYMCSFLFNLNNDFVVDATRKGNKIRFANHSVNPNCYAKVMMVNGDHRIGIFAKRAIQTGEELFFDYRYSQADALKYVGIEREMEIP
Chain of wild-type EZH2 (PRC2 enzyme) (O75530 whole entry partner): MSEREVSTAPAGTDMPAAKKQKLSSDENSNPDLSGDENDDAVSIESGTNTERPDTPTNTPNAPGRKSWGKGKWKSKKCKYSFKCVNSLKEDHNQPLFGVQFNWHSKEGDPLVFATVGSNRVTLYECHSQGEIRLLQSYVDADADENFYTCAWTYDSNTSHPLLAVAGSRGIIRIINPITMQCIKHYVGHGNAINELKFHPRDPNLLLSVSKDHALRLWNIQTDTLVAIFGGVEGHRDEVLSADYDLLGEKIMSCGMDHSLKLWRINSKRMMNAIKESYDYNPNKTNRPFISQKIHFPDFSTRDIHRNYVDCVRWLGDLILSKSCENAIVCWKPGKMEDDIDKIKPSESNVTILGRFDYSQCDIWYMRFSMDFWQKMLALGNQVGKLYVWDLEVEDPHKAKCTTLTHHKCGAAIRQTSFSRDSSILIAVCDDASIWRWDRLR
Chain of wild-type EZH2 (PRC2 enzyme) (Q15022 whole entry partner): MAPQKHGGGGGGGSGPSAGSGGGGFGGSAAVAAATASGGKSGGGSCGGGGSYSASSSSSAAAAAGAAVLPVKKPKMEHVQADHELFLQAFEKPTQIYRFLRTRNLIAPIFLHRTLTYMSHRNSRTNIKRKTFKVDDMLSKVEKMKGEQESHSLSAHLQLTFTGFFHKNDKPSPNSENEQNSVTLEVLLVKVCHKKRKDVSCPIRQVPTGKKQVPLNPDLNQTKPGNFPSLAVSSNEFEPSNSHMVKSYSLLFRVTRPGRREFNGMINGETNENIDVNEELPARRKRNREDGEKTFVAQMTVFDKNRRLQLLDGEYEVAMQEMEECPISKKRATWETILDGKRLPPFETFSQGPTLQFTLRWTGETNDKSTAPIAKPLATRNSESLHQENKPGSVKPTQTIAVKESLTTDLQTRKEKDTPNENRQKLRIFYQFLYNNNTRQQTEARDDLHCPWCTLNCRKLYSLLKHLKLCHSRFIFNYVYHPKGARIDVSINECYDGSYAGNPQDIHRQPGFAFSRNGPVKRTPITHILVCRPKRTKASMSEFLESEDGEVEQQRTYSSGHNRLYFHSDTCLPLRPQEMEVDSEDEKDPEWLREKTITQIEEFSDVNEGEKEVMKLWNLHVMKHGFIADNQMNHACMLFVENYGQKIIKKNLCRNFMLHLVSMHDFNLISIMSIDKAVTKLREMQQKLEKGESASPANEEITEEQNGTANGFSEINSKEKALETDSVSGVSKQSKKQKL
Chain of wild-type EZH2 (PRC2 enzyme) (Q09028 whole entry partner): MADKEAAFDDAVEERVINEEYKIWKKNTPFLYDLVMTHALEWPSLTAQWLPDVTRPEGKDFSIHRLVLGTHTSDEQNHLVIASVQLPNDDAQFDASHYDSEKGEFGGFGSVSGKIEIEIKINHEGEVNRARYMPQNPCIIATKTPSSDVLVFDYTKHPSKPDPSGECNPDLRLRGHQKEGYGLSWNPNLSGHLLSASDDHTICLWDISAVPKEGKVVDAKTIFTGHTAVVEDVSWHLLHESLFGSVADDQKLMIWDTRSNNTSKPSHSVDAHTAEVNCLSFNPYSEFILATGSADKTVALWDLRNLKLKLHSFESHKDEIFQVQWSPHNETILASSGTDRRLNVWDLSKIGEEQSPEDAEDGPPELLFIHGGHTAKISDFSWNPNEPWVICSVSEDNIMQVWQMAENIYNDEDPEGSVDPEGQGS
Chain of EZH2 Y641F mutant (PRC2 enzyme) (Q15910 whole entry Y641F): as the sequence (Q15910 whole entry) above, with Y641F counted along it
Chain of EZH2 Y641F mutant (PRC2 enzyme) (O75530 whole entry partner): as the sequence (O75530 whole entry partner) above
Chain of EZH2 Y641F mutant (PRC2 enzyme) (Q15022 whole entry partner): as the sequence (Q15022 whole entry partner) above
Chain of EZH2 Y641F mutant (PRC2 enzyme) (Q09028 whole entry partner): as the sequence (Q09028 whole entry partner) above

Regarding “5-chloro-3-(ethyl((trans)-4-((4-methoxybenzyl)(methyl)amino) cyclohexyl)amino)-2-methyl-N-((1-methyl-3-oxo-5-(piperidin-1-yl)-2,3-dihydro-1H-pyrazol-4-yl)methyl)benzamide [Compound 84]”, the pIC50 – broadly, −log10 of the IC50, conventionally taken in molar units – in assay [1] was 5.84; in assay [2], 5.92; in assay [3] (96 hours incubation) it was 4.78.
As for `CCN(c1cc(-c2ccc(CN3CCOCC3)cc2)cc(C(=O)NCc2c(C)[nH]n(C)c2=O)c1C)C1CCOCC1` [Compound 46, N-((2,5-dimethyl-3-oxo-2,3-dihydro-1H-pyrazol-4-yl)methyl)-5-(ethyl(tetrahydro-2H-pyran-4-yl)amino)-4-methyl-4′-(morpholinomethyl)-[1,1′-biphenyl]-3-carboxamide], the pIC50 in assay [3] (setting [4]) is under 4.30.
Same read-out and setting: for `CCN(c1cc(-c2ccc(N3CCNCC3)nc2)cc(C(=O)NCc2c(C)[nH]n(C)c2=O)c1C)C1CCOCC1` [Compound 47, N-((2,5-dimethyl-3-oxo-2,3-dihydro-1H-pyrazol-4-yl)methyl)-3-(ethyl(tetrahydro-2H-pyran-4-yl)amino)-2-methyl-5-(6-(piperazin-1-yl)pyridin-3-yl)benzamide] the value was under 4.30.
Consider `CCN(c1cc(Cl)cc(C(=O)NCc2c(OC)nn(CC)c2C)c1C)C1CCN(CCOC)CC1` [Compound 74], for which the pIC50 in assay [1] was 4.90; in assay [2], 5.14.
On to `CCN(c1cc(Cl)cc(C(=O)NCc2c(OC)nn(C)c2C)c1C)C1CCN(CCOC)CC1` [Compound 76, 5-chloro-3-(ethyl(1-(2-methoxyethyl)piperidin-4-yl)amino)-N-((3-methoxy-1,5-dimethyl-1H-pyrazol-4-yl)methyl)-2-methylbenzamide], for which the pIC50 in assay [1] and in assay [2] was under 4.30 throughout.
On to `CCN(c1cc(Cl)cc(C(=O)NCc2c(C)n(C)[nH]c2=O)c1C)C1CCN(CCOC)CC1` [Compound 77, 5-chloro-N-((1,5-dimethyl-3-oxo-2,3-dihydro-1H-pyrazol-4-yl)methyl)-3-(ethyl(1-(2-methoxyethyl)piperidin-4-yl)amino)-2-methylbenzamide], for which the results for the pIC50 in assay [1] and in assay [2] were 4.90 and 5.33, respectively.
For `CCN(c1cc(Cl)cc(C(=O)NCc2c(OC)nn(C)c2C)c1C)C1CCN(CCc2cccc(OC)c2)CC1` [Compound 78, 5-chloro-3-(ethyl(1-(3-methoxyphenethyl)piperidin-4-yl)amino)-N-((3-methoxy-1,5-dimethyl-1H-pyrazol-4-yl)methyl)-2-methylbenzamide], in that order: 4.76 and 5.37.
For `CCN(c1cc(Cl)cc(C(=O)NCc2c(C)n(C)[nH]c2=O)c1C)C1CCN(CCc2cccc(OC)c2)CC1` [Compound 79, 5-chloro-N-((1,5-dimethyl-3-oxo-2,3-dihydro-1H-pyrazol-4-yl)methyl)-3-(ethyl(1-(3-methoxyphenethyl)piperidin-4-yl)amino)-2-methylbenzamide], in that order: 6.31 and 7.00.
Take `CCN(c1cc(Cl)cc(C(=O)NCc2c(OC)nn(C)c2N2CCCC2)c1C)[C@H]1CC[C@H](N(C)C)CC1` [Compound 80, 5-chloro-3-(((trans)-4-(dimethylamino)cyclohexyl) (ethyl)amino)-N-((3-methoxy-1-methyl-5-(pyrrolidin-1-yl)-1H-pyrazol-4-yl)methyl)-2-methylbenzamide]: the pIC50 in assay [1] is under 4.30; in assay [2] it was 4.31.
The like results for `CCN(c1cc(Cl)cc(C(=O)NCc2c(OC)nn(C)c2N2CCOCC2)c1C)[C@H]1CC[C@H](N(C)C)CC1` [Compound 82, 5-chloro-3-(((trans)-4-(dimethylamino)cyclohexyl) (ethyl)amino)-N-((3-methoxy-1-methyl-5-morpholino-1H-pyrazol-4-yl)methyl)-2-methylbenzamide] were, in that order, 4.64 and 4.57.
For `CCN(c1cc(Cl)cc(C(=O)NCc2c(OC)nn(C)c2N2CCCCC2)c1C)[C@H]1CC[C@H](N(C)Cc2cccc(OC)c2)CC1` [Compound 83, 5-chloro-3-(ethyl((trans)-4-((3-methoxybenzyl)(methyl)amino)cyclohexyl)amino)-N-((3-methoxy-1-methyl-5-(piperidin-1-yl)-1H-pyrazol-4-yl)methyl)-2-methylbenzamide], in that order: 4.34 and 4.74.
The like results for `CCN(c1cc(Cl)cc(C(=O)NCc2c(C)n(C)n(C)c2=O)c1C)[C@H]1CC[C@H](N(C)C)CC1` [Compound 87, 5-chloro-3-(ethyl((trans)-4-(dimethylamino)cyclohexyl)amino)-2-methyl-N-((1,2,5-trimethyl-3-oxo-2,3-dihydro-1H-pyrazol-4-yl)methyl)benzamide] were, in that order, 6.47 and 6.60.
Regarding `CCN(c1cc(Cl)cc(C(=O)NCc2c(C(F)(F)F)nn(C)c2OC)c1C)[C@H]1CC[C@H](N(C)C)CC1` [Compound 88, 5-chloro-3-(ethyl((trans)-4-(dimethylamino)cyclohexyl)amino)-N-((5-methoxy-1-methyl-3-(trifluoromethyl)-1H-pyrazol-4-yl)methyl)-2-methylbenzamide], the pIC50 is under 4.30 in assay [1] and 4.33 in assay [2].
In the case of `CCN(c1cc(Cl)cc(C(=O)NCc2c(C(F)(F)F)[nH]n(C)c2=O)c1C)[C@H]1CC[C@H](N(C)C)CC1` [Compound 89, 5-chloro-3-(ethyl((trans)-4-(dimethylamino)cyclohexyl)amino)-2-methyl-N-((2-methyl-3-oxo-5-(trifluoromethyl)-2,3-dihydro-1H-pyrazol-4-yl)methyl)benzamide], the pIC50 in assay [1] and in assay [2] was under 4.30 throughout.
On to `CCN(c1cc(Cl)cc(C(=O)NCc2c(C(F)(F)F)n(C)n(C)c2=O)c1C)[C@H]1CC[C@H](N(C)C)CC1` [Compound 90, 5-chloro-N-((1,2-dimethyl-3-oxo-5-(trifluoromethyl)-2,3-dihydro-1H-pyrazol-4-yl)methyl)-3-(ethyl((trans)-4-(dimethylamino)cyclohexyl)amino)-2-methylbenzamide], for which the pIC50 in assay [1] was 5.72; in assay [2], 6.30.
For `CCN(c1cc(Cl)cc(C(=O)NCc2c(OC)nn(C)c2N2CCCCC2)c1C)[C@H]1CC[C@H](N(C)C)CC1` [Compound 92, 5-chloro-3-(ethyl[(trans)-4-(dimethylamino)cyclohexyl]amino)-N-([3-methoxy-1-methyl-5-(piperidin-1-yl)-1H-pyrazol-4-yl]methyl)-2-methylbenzamide], in that order: under 4.30 and under 4.30.
The like results for `CCN(c1cc(Cl)cc(C(=O)NCc2c(N3CCCCC3)nn(C)c2OC)c1C)[C@H]1CC[C@H](N(C)C)CC1` [Compound 94, 5-chloro-3-(((trans)-4-(dimethylamino)cyclohexyl)(ethyl)amino)-N-((5-methoxy-1-methyl-3-(piperidin-1-yl)-1H-pyrazol-4-yl)methyl)-2-methylbenzamide] were, in that order, under 4.30 and under 4.30.
The like results for `CCN(c1cc(Cl)cc(C(=O)NCc2c(OC)nn(C)c2OC)c1C)[C@H]1CC[C@H](N(C)C)CC1` [Compound 95, 5-chloro-N-((3,5-dimethoxy-1-methyl-1H-pyrazol-4-yl)methyl)-3-(((trans)-4-(dimethylamino)cyclohexyl)(ethyl)amino)-2-methylbenzamide] were, in that order, under 4.30 and 4.75.
